Data on 7 compounds can be found in US7820623B2 (priority 2006, dated 2010).

Bridge positions count the residues as written; N and C are the ends. Peptide text beside a SMILES is read from it.

Assay [1] deals with thapsigargin-induced IL-2 production in human whole blood. To be noted: read-out: Analogue Activity (IC50) WB/IL-2.
The target of another assay is human Kv1.3 (Homo sapiens, UniProt P22001). It counts as cell-based. Also on record: expressed in transfected cells.
The test system of assay [2] is thapsigargin-induced IFN-g production in human whole blood. It counts as cell-based. To be noted: read-out: Analogue Activity (IC50) WB/IFNg.

Chain of human Kv1.3 (P22001 whole entry): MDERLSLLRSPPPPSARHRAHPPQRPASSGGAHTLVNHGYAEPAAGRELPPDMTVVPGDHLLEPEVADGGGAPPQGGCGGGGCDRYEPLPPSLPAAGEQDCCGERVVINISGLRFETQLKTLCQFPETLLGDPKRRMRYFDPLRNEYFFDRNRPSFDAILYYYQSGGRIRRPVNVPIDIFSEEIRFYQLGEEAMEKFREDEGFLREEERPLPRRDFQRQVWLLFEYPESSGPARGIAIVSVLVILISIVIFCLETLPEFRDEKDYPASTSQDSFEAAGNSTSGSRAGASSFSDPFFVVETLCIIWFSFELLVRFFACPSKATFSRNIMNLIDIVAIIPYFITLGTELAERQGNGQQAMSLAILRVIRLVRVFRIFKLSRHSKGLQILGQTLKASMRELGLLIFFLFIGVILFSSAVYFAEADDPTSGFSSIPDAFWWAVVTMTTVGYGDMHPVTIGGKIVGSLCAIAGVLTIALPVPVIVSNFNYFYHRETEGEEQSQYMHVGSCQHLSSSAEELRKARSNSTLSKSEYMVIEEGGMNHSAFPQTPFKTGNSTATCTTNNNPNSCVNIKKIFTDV

Turning to `CC[C@H](C)[C@@H]1NC(=O)[C@H](CCCCN)NC(=O)[C@@H](NC(=O)[C@H](CCCCN)NC(=O)[C@@H](NC(=O)[C@H](CC(N)=O)NC(=O)[C@@H](NC(=O)[C@@H](NC(=O)[C@@H](NC(=O)CN)C(C)C)[C@@H](C)CC)[C@@H](C)CC)C(C)C)CSSC[C@@H]2NC(=O)[C@H](CCCCN)NC(=O)CNC(=O)[C@H](Cc3ccccc3)NC(=O)[C@H](CCCNC(=N)N)NC(=O)[C@H](CCSC)NC(=O)CNC(=O)[C@H](C)NC(=O)[C@H](CCCCN)NC(=O)[C@H](CCCCN)NC(=O)[C@@H]3CSSC[C@@H](C(=O)N[C@H](C(=O)N4CCC[C@H]4C(=O)N[C@@H](CCCCN)C(=O)O)[C@@H](C)O)NC(=O)[C@H](CCC(=O)O)NC(=O)[C@H](CSSC[C@H](NC(=O)[C@H](CCC(N)=O)NC(=O)[C@H](CCCNC(=N)N)NC(=O)[C@H](CO)NC1=O)C(=O)N[C@@H](CC(C)C)C(=O)N[C@@H](CCC(=O)O)C(=O)N1CCC[C@H]1C(=O)N3)NC(=O)[C@H](CCCCN)NC(=O)CNC(=O)[C@H](CC(N)=O)NC(=O)[C@H](CCSC)NC2=O` [H34E] (H-GVIINVKCKISRQCLEPCKKAGMRFGKCMNGKCECTPK-OH; disulfide 8-28, 14-33, 18-35), the results for the IC50 in assay [1] and in assay [2] were 1.62 nM and 2.38 nM, respectively. In addition, the “Kv1.3 Selectivity (= Kv1.1/Kv.3 IC50)” value on human Kv1.3 came to 30.
The like results for `CC[C@H](C)[C@@H]1NC(=O)[C@H](CCCCN)NC(=O)[C@@H](NC(=O)[C@H](CCCCN)NC(=O)[C@@H](NC(=O)[C@H](CC(N)=O)NC(=O)[C@@H](NC(=O)[C@@H](NC(=O)[C@@H](NC(=O)CN)C(C)C)[C@@H](C)CC)[C@@H](C)CC)C(C)C)CSSC[C@@H]2NC(=O)[C@H](C)NC(=O)CNC(=O)[C@H](Cc3ccccc3)NC(=O)[C@H](CCCNC(=N)N)NC(=O)[C@H](CCSC)NC(=O)CNC(=O)[C@H](C)NC(=O)[C@H](CCCCN)NC(=O)[C@H](CCCCN)NC(=O)[C@@H]3CSSC[C@@H](C(=O)N[C@H](C(=O)N4CCC[C@H]4C(=O)N[C@@H](CCCCN)C(=O)O)[C@@H](C)O)NC(=O)[C@H](Cc4c[nH]cn4)NC(=O)[C@H](CSSC[C@H](NC(=O)[C@H](CCC(N)=O)NC(=O)[C@H](CCCNC(=N)N)NC(=O)[C@H](CO)NC1=O)C(=O)N[C@@H](CC(C)C)C(=O)N[C@@H](CCC(=O)O)C(=O)N1CCC[C@H]1C(=O)N3)NC(=O)[C@H](CCCCN)NC(=O)CNC(=O)[C@H](CC(N)=O)NC(=O)[C@H](CCSC)NC2=O` [K27A] (H-GVIINVKCKISRQCLEPCKKAGMRFGACMNGKCHCTPK-OH; disulfide 8-28, 14-33, 18-35) were, in that order, 1.23 nM, 1.58 nM and 35.
The like results for `CC[C@H](C)[C@@H]1NC(=O)[C@H](CCCCN)NC(=O)[C@@H](NC(=O)[C@H](CCCCN)NC(=O)[C@@H](NC(=O)[C@H](CC(N)=O)NC(=O)[C@@H](NC(=O)[C@@H](NC(=O)[C@@H](NC(=O)CN)C(C)C)[C@@H](C)CC)[C@@H](C)CC)C(C)C)CSSC[C@@H]2NC(=O)[C@H](CCCCN)NC(=O)CNC(=O)[C@H](Cc3ccccc3)NC(=O)[C@H](CCCNC(=N)N)NC(=O)[C@H](CCSC)NC(=O)CNC(=O)[C@H](C)NC(=O)[C@H](CCCCN)NC(=O)[C@H](CCCCN)NC(=O)[C@@H]3CSSC[C@@H](C(=O)N[C@H](C(=O)N[C@@H](CCC(=O)O)C(=O)N[C@@H](CCCCN)C(=O)O)[C@@H](C)O)NC(=O)[C@H](Cc4c[nH]cn4)NC(=O)[C@H](CSSC[C@H](NC(=O)[C@H](CCC(N)=O)NC(=O)[C@H](CCCNC(=N)N)NC(=O)[C@H](CO)NC1=O)C(=O)N[C@@H](CC(C)C)C(=O)N[C@@H](CCC(=O)O)C(=O)N1CCC[C@H]1C(=O)N3)NC(=O)[C@H](CCCCN)NC(=O)CNC(=O)[C@H](CC(N)=O)NC(=O)[C@H](CCSC)NC2=O` [P37E] (H-GVIINVKCKISRQCLEPCKKAGMRFGKCMNGKCHCTEK-OH; disulfide 8-28, 14-33, 18-35) were, in that order, 0.239 nM, 1.6 nM and 65.
The like results for `CC[C@H](C)[C@@H]1NC(=O)[C@H](CCCCN)NC(=O)[C@@H](NC(=O)[C@H](CCCCN)NC(=O)[C@@H](NC(=O)[C@H](CC(N)=O)NC(=O)[C@@H](NC(=O)[C@@H](NC(=O)[C@@H](NC(=O)CN)C(C)C)[C@@H](C)CC)[C@@H](C)CC)C(C)C)CSSC[C@@H]2NC(=O)[C@H](CCCCN)NC(=O)CNC(=O)[C@H](Cc3ccccc3)NC(=O)[C@H](CCCNC(=N)N)NC(=O)[C@H](CCSC)NC(=O)CNC(=O)[C@H](C)NC(=O)[C@H](CCCCN)NC(=O)[C@H](CCCCN)NC(=O)[C@@H]3CSSC[C@@H](C(=O)N[C@H](C(=O)N4CCC[C@H]4C(=O)N[C@@H](CCCCN)C(=O)O)[C@@H](C)O)NC(=O)[C@H](Cc4c[nH]cn4)NC(=O)[C@H](CSSC[C@H](NC(=O)[C@H](CCC(N)=O)NC(=O)[C@H](C)NC(=O)[C@H](CO)NC1=O)C(=O)N[C@@H](CC(C)C)C(=O)N[C@@H](CCC(=O)O)C(=O)N1CCC[C@H]1C(=O)N3)NC(=O)[C@H](CCCCN)NC(=O)CNC(=O)[C@H](CC(N)=O)NC(=O)[C@H](CCSC)NC2=O` [R12A] (H-GVIINVKCKISAQCLEPCKKAGMRFGKCMNGKCHCTPK-OH; disulfide 8-28, 14-33, 18-35) were, in that order, 0.123 nM, 0.155 nM and 17.
`CC[C@H](C)[C@@H]1NC(=O)[C@H](CCCCN)NC(=O)[C@@H](NC(=O)[C@H](CCCCN)NC(=O)[C@@H](NC(=O)[C@H](CC(N)=O)NC(=O)[C@@H](NC(=O)[C@@H](NC(=O)[C@@H](NC(=O)CN)C(C)C)[C@@H](C)CC)[C@@H](C)CC)C(C)C)CSSC[C@@H]2NC(=O)[C@H](CCCCN)NC(=O)CNC(=O)[C@H](Cc3ccccc3)NC(=O)[C@H](CCCNC(=N)N)NC(=O)[C@H](CCSC)NC(=O)CNC(=O)[C@H](C)NC(=O)[C@H](CCCCN)NC(=O)[C@H](CCCCN)NC(=O)[C@@H]3CSSC[C@@H](C(=O)N[C@H](C(=O)N4CCC[C@H]4C(=O)N[C@@H](CCCCN)C(=O)O)[C@@H](C)O)NC(=O)[C@H](Cc4c[nH]cn4)NC(=O)[C@H](CSSC[C@H](NC(=O)[C@H](CCC(N)=O)NC(=O)[C@H](CCCNC(=N)N)NC(=O)[C@H](CO)NC1=O)C(=O)N[C@@H](CCC(=O)O)C(=O)N[C@@H](CCC(=O)O)C(=O)N1CCC[C@H]1C(=O)N3)NC(=O)[C@H](CCCCN)NC(=O)CNC(=O)[C@H](CC(N)=O)NC(=O)[C@H](CCSC)NC2=O` [L15E] (H-GVIINVKCKISRQCEEPCKKAGMRFGKCMNGKCHCTPK-OH; disulfide 8-28, 14-33, 18-35): the results for the IC50 in assay [1] and in assay [2] were 0.785 nM and 1.06 nM, respectively. Further, the “Kv1.3 Selectivity (= Kv1.1/Kv.3 IC50)” value on human Kv1.3 is on record as 342.
For the compound `CC[C@H](C)[C@@H]1NC(=O)[C@H](CCCCN)NC(=O)[C@@H](NC(=O)[C@H](CCCCN)NC(=O)[C@@H](NC(=O)[C@H](CC(N)=O)NC(=O)[C@@H](NC(=O)[C@@H](NC(=O)[C@@H](NC(=O)CN)C(C)C)[C@@H](C)CC)[C@@H](C)CC)C(C)C)CSSC[C@@H]2NC(=O)[C@H](CCCCN)NC(=O)CNC(=O)[C@H](Cc3ccccc3)NC(=O)[C@H](CCCNC(=N)N)NC(=O)[C@H](CCSC)NC(=O)CNC(=O)[C@H](C)NC(=O)[C@H](CCCCN)NC(=O)[C@H](CCCCN)NC(=O)[C@@H]3CSSC[C@@H](C(=O)N[C@H](C(=O)N4CCC[C@H]4C(=O)N[C@@H](CCCCN)C(=O)O)[C@@H](C)O)NC(=O)[C@H](Cc4c[nH]cn4)NC(=O)[C@H](CSSC[C@H](NC(=O)[C@H](CCC(N)=O)NC(=O)[C@H](CCCNC(=N)N)NC(=O)[C@H](CO)NC1=O)C(=O)N[C@@H](CC(C)C)C(=O)N[C@@H](CCC(=O)O)C(=O)N1CCC[C@H]1C(=O)N3)NC(=O)[C@H](CCCCN)NC(=O)CNC(=O)[C@H](CC(N)=O)NC(=O)[C@H](C)NC2=O` [M29A] (H-GVIINVKCKISRQCLEPCKKAGMRFGKCANGKCHCTPK-OH; disulfide 8-28, 14-33, 18-35), the values for the IC50 (in assay [1]; at human Kv1.3 (read-out: Kv1.3 (IC50)); in assay [2]) were 0.447 nM, 0.033 nM and 0.292 nM, respectively. In addition, the “Kv1.3 Selectivity (= Kv1.1/Kv.3 IC50)” value at human Kv1.3 is 105.
In the case of `CC[C@H](C)[C@@H]1NC(=O)[C@H](CCCCN)NC(=O)[C@@H](NC(=O)[C@H](CCCCN)NC(=O)[C@@H](NC(=O)[C@H](CC(N)=O)NC(=O)[C@@H](NC(=O)[C@@H](NC(=O)[C@@H](NC(=O)CN)C(C)C)[C@@H](C)CC)[C@@H](C)CC)C(C)C)CSSC[C@@H]2NC(=O)[C@H](CCCCN)NC(=O)CNC(=O)[C@H](Cc3ccccc3)NC(=O)[C@H](CCCNC(=N)N)NC(=O)[C@H](CCSC)NC(=O)CNC(=O)[C@H](C)NC(=O)[C@H](CCCCN)NC(=O)[C@H](CCCCN)NC(=O)[C@@H]3CSSC[C@@H](C(=O)N[C@H](C(=O)N4CCC[C@H]4C(=O)N[C@@H](CCCCN)C(=O)O)[C@@H](C)O)NC(=O)[C@H](Cc4c[nH]cn4)NC(=O)[C@H](CSSC[C@H](NC(=O)[C@H](CCC(N)=O)NC(=O)[C@H](CCCNC(=N)N)NC(=O)[C@H](CO)NC1=O)C(=O)N[C@@H](CC(C)C)C(=O)N[C@@H](CCC(=O)O)C(=O)N1CCC[C@H]1C(=O)N3)NC(=O)[C@H](CCCCN)NC(=O)CNC(=O)[C@H](C)NC(=O)[C@H](CCSC)NC2=O` [N30A] (H-GVIINVKCKISRQCLEPCKKAGMRFGKCMAGKCHCTPK-OH; disulfide 8-28, 14-33, 18-35), the IC50 in assay [1] was found to be 0.971 nM; in assay [2] it was 0.637 nM. Moreover, on human Kv1.3, the “Kv1.3 Selectivity (= Kv1.1/Kv.3 IC50)” value was determined as 14.
